# According to the METLIN SMRT retention time set (Domingo-Almenara et al. 2019):
# Test: gradient 5% acetonitrile 3 min, to 50% in 2 min, to 85% in 15 min, held 3 min, 100 µL/min
# Details: column: Zorbax Extend-C18 2.1 x 50 mm; eluents: water / acetonitrile, 0.1% formic acid
# Procedure, shortened: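 Retention time was recorded from adduct peaks, which were picked computationally and each inspected manually. Pure standards ran in mixtures of ~100 molecules on HPLC coupled to a quadrupole time-of-flight mass spectrometer, in positive and negative ionization mode, through a Zorbax Extend-C18 column (2.1 × 50 mm, 1.8 μm) at 100 μL/min. Eluents were water and acetonitrile, each with 0.1% formic acid.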
row,SMILES,RP-LC retention time
1,CCN(CC)CCNC(=O)c1nc(-c2oc3ccc(C)cc3c2C)no1,695 s
2,Cc1ccc(C)c(N(C)C(=O)C2CCCN(c3ncnc4c3nc3n4CCCCC3)C2)c1 (stereo not drawn),899 s
3,CCS(=O)(=O)c1nc2ccc(NS(=O)(=O)c3ccc(C(C)(C)C)cc3)cc2s1,1040 s
4,Cc1ccc(-c2ccc(=O)n(Cc3noc(C(=O)N4CCC(C)CC4)n3)n2)cc1,977 s
5,O=C(NCCc1ccc(Cl)cc1)c1nnc(-c2ccc(S(=O)(=O)N3CCOCC3)cc2)o1,925 s
6,CCN1CCN(c2ncc3c(n2)CC(C)CC3=O)CC1 (stereo not drawn),575 s
7,CC(=O)N1CCc2cc(-c3ccc(C(=O)NCCN4CCCCC4C)cc3)ccc21 (stereo not drawn),622 s
8,O=C(NCCCn1ncccc1=O)c1coc(NC(=O)c2cccs2)n1,589 s
9,CCc1ccc2c(c1)-c1ccccc1S(=O)(=O)N2CC(=O)NCc1ccncc1,703 s
10,O=C(Nc1ccc2c(c1)OCO2)C(=O)c1cccn1Cc1ccc(F)cc1,1050 s
11,CN1CCN(C(=O)c2csc(N3CCN(c4ccc(F)cc4)CC3)n2)CC1,643 s
12,COc1cc2c(cc1OC)C(C(=O)NC1CCCCCC1)C(c1cccnc1)N(C)C2=O (stereo not drawn),645 s
13,COCCN1CCCc2ccc(NC(=O)c3ccc(Br)o3)cc21,913 s
14,Cc1ccc2c(c1)C(O)(CC(=O)c1ccccc1)C(=O)N2 (stereo not drawn),666 s
15,Cc1ccc(CN2C(=O)CN(S(C)(=O)=O)CC2(C)C(=O)NCc2ccccc2)cc1 (stereo not drawn),851 s
16,O=C(C1CCN(S(=O)(=O)N2CCOCC2)CC1)N1CCC(Cc2nc(C3CCOCC3)no2)CC1,681 s
17,CC(C)CCNC(=O)c1ccc2ccnc(N3CCN(c4ccc(Cl)cc4)CC3)c2c1,992 s
18,COc1cccc(-c2noc(-c3cc(N4CCN(c5ccccn5)CC4)nc4ccccc34)n2)c1OC,841 s
19,Cn1nccc1-c1cccc(-c2noc(C3CCN(S(=O)(=O)c4ccc(Cl)cc4)CC3)n2)c1,1120 s
20,Cc1ccc(C)c(N2CCN(c3ccnc(SCC(=O)Nc4ccccc4F)n3)CC2)c1,1010 s
21,O=C(c1ccoc1)N1CCC(F)(C(=O)NCC2CC2)CC1,618 s
22,CCn1c(C2CCCN(C(=O)NCC(C)C)C2)nn(C)c1=O (stereo not drawn),628 s

row,SMILES,RP-LC retention time
1,Cc1ccc(C(=O)NCCn2c(C)cnc2C2CC2)s1,584 s
2,O=C(NCc1cc(F)ccc1F)c1ccc2ncnc(N3CCCCC3)c2c1,671 s
3,CCn1cc(-c2nc(C(=O)Nc3ccc(Cl)cc3)cs2)c2cccnc21,1330 s
4,COc1ccccc1NS(=O)(=O)c1cc2c3c(c1)CCC(=O)N3CCC2,799 s
5,Cc1ccc(NC(=O)N(C)CC2CCOC2)cc1 (stereo not drawn),667 s
6,O=C(CS(=O)Cc1cnn(-c2ccccc2)c1-n1cccc1)NCCc1ccc(Cl)cc1 (stereo not drawn),892 s
7,COc1ccccc1NC(=O)Cn1c2ccccc2n2c(=O)cc(-c3ccc(F)cc3)nc12,1010 s
8,CC1CCC(NC(=O)C2CCN(C(=O)c3cc(-c4ccncc4)n[nH]3)CC2)CC1 (stereo not drawn),624 s
9,CCCNC(=O)C1CCCN(c2nc(C)nc3onc(CC)c23)C1 (stereo not drawn),743 s
10,CC(C)Cn1cc(CCNS(=O)(=O)c2ccc(Br)s2)c2cccnc21,995 s
11,CCCC(NC(=O)c1ccc(C(F)(F)F)cc1)C(=O)Nc1nc2ccccc2[nH]1 (stereo not drawn),802 s
12,CCCn1nnc(NCc2ccc(-c3cc(Cl)cc(Cl)c3)o2)n1,1210 s
13,COc1ccc(N2CCN(c3ncc(S(=O)(=O)c4ccc(C(C)C)cc4)c(N)n3)CC2)cc1,1070 s
14,COc1cccc(-c2nnc(Cc3nc(-c4cccc(OC)c4OC)no3)o2)c1,923 s
15,O=C(C1CCN(c2cnn(Cc3ccccc3)c(=O)c2)CC1)N1CCCCCC1,774 s
16,O=C(CCC1CCCN(S(=O)(=O)c2cccc(F)c2)C1)NCC1CC1 (stereo not drawn),822 s
17,N[C@@H](Cc1cc(CP(=O)(O)O)cc(-c2ccccc2Cl)c1)C(=O)O,647 s
18,O=C(NCc1ccccc1)c1cc(N2CCCC2)n2nccc2n1,951 s
19,CC(C)N1CCn2cc(S(=O)(=O)Nc3cccc(Cl)c3)cc2C1=O,805 s
20,COCCn1ccc2nc(C)c(C(=O)NCCc3ccco3)cc2c1=O,638 s
21,O=C(NCc1ccc(F)cc1Cl)C1=C2CCCN2c2ccc(F)cc2S1(=O)=O,933 s
22,Cc1oc(-c2[nH]ncc2C(=O)N2CCCC2)cc1S(=O)(=O)Nc1ccc(C(C)C)cc1,835 s

row,SMILES,RP-LC retention time
1,COc1ccc(N2CCN(c3ccc4cc(S(=O)(=O)N5CCCCC5C)ccc4n3)CC2)cc1 (stereo not drawn),991 s
2,CCc1nnc([C@@H]2CC(F)(F)CN2C(=O)c2ocnc2C)o1,644 s
3,Cc1c(Cl)ccc2c(=O)c3c([nH]c12)CCN(CC(=O)NCc1ccc2c(c1)OCO2)C3,666 s
4,CCCc1cc(N2CCN(C(=O)c3ccccc3)CC2)nc2nncn12,608 s
5,CC1CC(C)CN(CCCNC(=O)c2ccc3c(c2)NC(=O)CS3)C1 (stereo not drawn),605 s
6,CCC(=O)N1CCCC1c1nc2ccccc2n1CC(=O)N1CCCC1 (stereo not drawn),584 s
7,CCN(CC)S(=O)(=O)N1CCC(C(=O)Nc2ccc3sc(NC(=O)C(C)C)nc3c2)CC1,854 s
8,Cc1cn(-c2ccc(SCC(=O)NCc3ccc4c(c3)OCO4)nn2)cn1,558 s
9,Cc1nn(C)c(C)c1S(=O)(=O)N1CCC(n2c(C)cnc2-c2ccccc2)C1 (stereo not drawn),618 s
10,Cc1ccc(CNS(=O)(=O)c2cc(-c3[nH]ncc3C(=O)N(C)C)oc2C)cc1,712 s
11,Cc1ccc(N2CCN(C(=O)C3CC(=O)N(c4cccc(NC(=O)C(C)C)c4)C3)CC2)cc1 (stereo not drawn),802 s
12,Cc1cc(Br)ccc1-c1ccc(CNCCO)o1,662 s
13,Cc1ccc(S(=O)(=O)N2CCCC(C(=O)Nc3nnc(Cc4cccs4)o3)C2)cc1 (stereo not drawn),810 s
14,O=C(NC1CC1)C1CCN(C(=O)c2ncn3c2COC(c2ccccc2)C3)CC1 (stereo not drawn),619 s
15,COCCCNC(=O)CN1C(=O)C2CCCCN2c2ccc(C(=O)N(C)C)cc21 (stereo not drawn),655 s
16,CCn1c(N2CCCC(C(=O)NCc3cccc(OC)c3)C2)cc(=O)n(C)c1=O (stereo not drawn),764 s
17,CC(=O)N1CCc2nn(CC(=O)Nc3ccccc3Cl)c(=O)cc2C1,606 s
18,COc1cc(C)c(C(C)C)cc1S(=O)(=O)NCc1ccco1,594 s
19,CCC(=O)Nc1c(C)noc1/C=C\c1ccc(S(=O)(=O)Nc2ccc(S(N)(=O)=O)cc2)cc1,695 s
20,Cc1nn2c(ncc3c(=O)n(-c4nccs4)ccc32)c1-c1ccccc1,1170 s
21,COc1ccc(C)cc1NC(=O)Cn1c(N)nc(C)cc1=O,618 s
22,O=C(Nc1nnc(C2CC(=O)N(c3ccccc3)C2)o1)c1ccccn1 (stereo not drawn),620 s

row,SMILES,RP-LC retention time
1,CN1CCN(Cc2nc3cc(NC(=O)C4CCCCC4)ccc3n2C)CC1,574 s
2,Cc1cccc(C2CCCN2C(=O)c2nc3nc(C)cc(C(F)F)n3n2)c1 (stereo not drawn),841 s
3,COCCc1noc(-c2nc(-c3ccc(OC)c(OC)c3)no2)n1,892 s
4,CC(C)N1CCN(C(=O)c2nc(N3CCSCC3)c3cnn(C)c3n2)CC1,577 s
5,O=S(=O)(c1ccccc1-c1nc(-c2ccccc2)no1)N1CCN(C2CCCCC2)CC1,755 s
6,CCOc1ccc(Br)cc1CNc1ccc2[nH]c(=O)[nH]c2c1,668 s
7,Cc1cc(-c2nnc(C3CCC3)o2)c(C)n1CC(=O)NCc1ccc2c(c1)OCO2,816 s
8,Cc1ccc(CNC(=O)c2cc3n(n2)CCCN(Cc2ccc(Cl)cc2)C3=O)o1,655 s
9,Cc1cc(-c2nnc(C3CCC3)o2)c(C)n1CC(=O)Nc1ccc2c(c1)OCCO2,836 s
10,O=C(Cn1cccc(-c2nc(-c3ccc(F)cc3)no2)c1=O)NCc1cccs1,673 s
11,Cc1nc2ccccc2c(=O)n1Cc1noc(Cc2ccc(Br)cc2)n1,917 s
12,Cc1cc(C)cc(NC(=O)C2CCCN(c3nc4ccsc4c(=O)n3Cc3ccc(F)cc3)C2)c1 (stereo not drawn),1090 s
13,CC(C)C(NC(=O)c1ccco1)C(=O)NCc1nn(C)c2ccccc12 (stereo not drawn),677 s
14,C=CCn1c(=O)c2ccccc2n(Cc2nc(-c3cccc(OCC)c3)no2)c1=O,1100 s
15,CC(NC(=O)c1cn2c(n1)CCCC2)c1ccc(F)cc1 (stereo not drawn),612 s
16,CCOC(=O)C1CCCN(Cc2nc3nc(C)cc(N4CCCC4)n3n2)C1 (stereo not drawn),579 s
17,COc1ccc(C(=O)N2CCN(c3ccc(-c4nc(C)cs4)cn3)CC2)cc1F,819 s
18,COc1cccc(N2CCn3c2nc2c3c(=O)n(CC(=O)O)c(=O)n2C)c1,702 s
19,C=CCNC(=O)C1CCCN(C(=O)Nc2ccc(NC(=O)Nc3ccccc3)cc2)C1 (stereo not drawn),707 s
20,COc1ccc(-c2noc(CCCC(=O)Nc3nc(-c4ccccc4)cs3)n2)cc1OC,982 s
21,Cc1cc(C)cc(C(=O)NCc2ccc(N3CCOCC3)nc2)c1,628 s
22,Cc1sc(C)c(S(=O)(=O)NCC2CCCO2)c1-c1cc(C(F)(F)F)on1 (stereo not drawn),1020 s
